Legend:
[1] = target: T1, Receptor-type tyrosine-protein kinase FLT3 (Homo sapiens, UniProt P36888); assay: Kinase Assay: The FLT3 inhibitory activity of the CDK4/6-FLT3 inhibitors was determined with a HTRF kinase assay. The FLT3 enzyme (GST-FLT3 fusion) was purchased from Carna Biosciences. An ULight-labeled synthetic peptide derived from human Janus kinase 1 (aa1015-1027, ULight-JAK1, PerkinElmer) was utilized as the phosphoacceptor substrate. The assay was conducted in a 384-well white OptiPlate (PerkinElmer). The 20 μL reaction mixture contained 50 nM ULight-JAK1, 116 μM ATP, 0.0385 ng/μL FLT3 and dilutions of test compounds in the kinase buffer (50 mM Hepes, pH 7.6, 1 mM EGTA, 10 mM MgCl2, 2 mM DTT, and 0.005% Tween 20). The reaction was allowed to proceed for 1 hour at room temperature and was stopped by adding 20 μL of 10 mM EDTA, 2 nM LANCE Eu-W1024 anti-phospho-tyrosine antibody in LANCE detection buffer (PerkinElmer). The plates were incubated at room temperature for 2 hours after addition of detection reagents and then read on an Envision multimode reader (PerkinElmer).
T1 sequence (P36888 whole entry): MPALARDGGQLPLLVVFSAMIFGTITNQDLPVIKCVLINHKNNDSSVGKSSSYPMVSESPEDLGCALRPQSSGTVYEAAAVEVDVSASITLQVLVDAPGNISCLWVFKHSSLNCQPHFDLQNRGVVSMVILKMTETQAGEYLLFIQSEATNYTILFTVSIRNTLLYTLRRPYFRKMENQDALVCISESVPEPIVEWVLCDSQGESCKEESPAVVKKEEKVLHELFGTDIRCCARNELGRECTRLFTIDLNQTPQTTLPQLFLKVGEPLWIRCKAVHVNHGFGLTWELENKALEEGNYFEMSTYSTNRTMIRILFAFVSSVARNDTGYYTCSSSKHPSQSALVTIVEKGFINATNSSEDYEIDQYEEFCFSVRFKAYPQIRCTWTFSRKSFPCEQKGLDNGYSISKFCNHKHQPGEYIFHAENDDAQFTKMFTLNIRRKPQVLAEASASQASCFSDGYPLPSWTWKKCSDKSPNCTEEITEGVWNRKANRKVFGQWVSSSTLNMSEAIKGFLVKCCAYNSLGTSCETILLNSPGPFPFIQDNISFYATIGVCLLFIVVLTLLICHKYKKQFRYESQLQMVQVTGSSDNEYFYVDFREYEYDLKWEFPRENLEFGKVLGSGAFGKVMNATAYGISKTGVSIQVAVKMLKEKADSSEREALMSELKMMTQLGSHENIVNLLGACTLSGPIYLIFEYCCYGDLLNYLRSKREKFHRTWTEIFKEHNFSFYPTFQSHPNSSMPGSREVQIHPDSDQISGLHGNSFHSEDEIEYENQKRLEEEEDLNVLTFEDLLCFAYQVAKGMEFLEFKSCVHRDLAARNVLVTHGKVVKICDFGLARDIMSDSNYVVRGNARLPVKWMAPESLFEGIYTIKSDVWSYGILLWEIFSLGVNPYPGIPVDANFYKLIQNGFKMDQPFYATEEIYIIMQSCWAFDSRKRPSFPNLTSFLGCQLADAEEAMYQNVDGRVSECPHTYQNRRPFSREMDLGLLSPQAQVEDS

[2] = target: Cyclin-dependent kinase 4 (Homo sapiens, UniProt P11802); assay: Kinase Assay: The CDK4 and CDK1 inhibitory activity of the CDK4/6-FLT3 inhibitors was determined with a filtration kinase assay. The compounds, kinase and substrate diluted in the kinase buffer (20 mM Tris, pH7.4, 50 mM NaCl, 1 mM DTT, 0.1% BSA) were sequentially added to a 96-well Multiscreen HTS filtration plate (Millipore). The final 100 μL reaction mixture in each well contained 0.3 μg of CDK4/Cyclin D1 or CDK1/Cyclin B (Cell Signaling Technology), 1 μg of Rb fragment (aa773-928, Millipore) for the CDK4 assay or 5 μg of histone H1 for the CDK1 assay and 1 μCi of [33P]-ATP. The mixture was incubated at room temperature for 1 hour. The proteins in the reaction were then precipitated and washed with cold TCA solution using an aspiration/filtration vacuum system. The plates were dried at room temperature, and the retained radioactivity was measured by scintillation counting.
Chain of Cyclin-dependent kinase 4 (P11802 whole entry, the tested form may be a part): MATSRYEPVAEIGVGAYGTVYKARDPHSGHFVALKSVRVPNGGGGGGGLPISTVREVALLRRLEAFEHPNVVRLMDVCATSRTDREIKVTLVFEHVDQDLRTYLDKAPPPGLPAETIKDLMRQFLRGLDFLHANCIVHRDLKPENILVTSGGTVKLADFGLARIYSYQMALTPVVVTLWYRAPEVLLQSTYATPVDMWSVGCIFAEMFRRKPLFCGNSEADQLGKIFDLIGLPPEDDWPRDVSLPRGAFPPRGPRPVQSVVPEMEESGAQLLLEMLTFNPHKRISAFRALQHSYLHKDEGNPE

- IC50 [1]: 2.9 nM
- IC50 [2]: 19.2 nM
Structure (SMILES): C[C@H]1CC[C@H](n2c3cnccc3c3cnc(Nc4ccc5c(n4)C(O)CN(CCO)C5)nc32)CC1 (some centres not stated)

— ChEMBL document CHEMBL3639325, “Fused tricyclic dual inhibitors of CDK 4/6 and FLT3” (2014)
